From patent US8633177B2, “Nitroxyl (HNO) releasing compounds and uses thereof in treating diseases” (The United States of America, as represented by the …, priority 2010, dated 2014)

Molecular target: glyceraldehyde-3-phosphate dehydrogenase (GAPDH) (Homo sapiens, UniProt P04406)
Experiment: GAPDH activity, MCF-10A
Assay type: cell-based
Design: endogenous in cells
Conditions: MCF-10A cell line
Experimental: Cells were plated at a concentration of 30,000 cells per well and grown overnight. Cells were treated with 100 μM IPA/NO-aspirin and DEA/NO-aspirin for 1, 3, and 6 h after which 200 μL of KDalert lysis buffer was added to each well. The plate was incubated at 4° C. for 20 min to lyse the cells. 10 μL of cell lysate was transferred to a clean 96 well plate and 90 μL of KDalert mastermix was added to each well and the fluorescence was measured at excitation of 540 nm and emission of 570 nm.

Chain of glyceraldehyde-3-phosphate dehydrogenase (GAPDH) (P04406 whole entry): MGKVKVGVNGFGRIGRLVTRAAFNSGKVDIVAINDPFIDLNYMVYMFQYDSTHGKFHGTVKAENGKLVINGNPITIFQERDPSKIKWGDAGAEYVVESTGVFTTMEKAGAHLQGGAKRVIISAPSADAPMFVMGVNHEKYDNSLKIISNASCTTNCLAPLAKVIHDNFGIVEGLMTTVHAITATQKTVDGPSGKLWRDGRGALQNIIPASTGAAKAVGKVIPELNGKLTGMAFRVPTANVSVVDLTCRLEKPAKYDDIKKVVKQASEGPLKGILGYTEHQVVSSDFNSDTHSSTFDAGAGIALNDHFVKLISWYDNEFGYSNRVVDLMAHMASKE

Structure (SMILES): CC(=O)Oc1ccccc1C(=O)OCON=[N+]([O-])NC(C)C [IPA/NO-aspirin, O^2-(Acetylsalicyloyloxymethyl)-1-(N-isopropylamino)-diazen-1-ium-1,2-diolate]
- GAPDH Activity: did not inhibit GAPDH activity
